Laboratory results published in patent US20200239412A1, “NEW DERIVATES OF DHAA WITH ELECTROSTATIC TUNING” (priority 2017, published 2020).
Where “and” joins values, the source holds several entries; their conditions need not be identical. Equal values may be shown once. Where a name gives a salt, the structure may show the parent alone.

Experiments:
Type in all cases: cell-based
[1] = biological target: 3R Shaker Kv channel (M356R/A359R) (Drosophila melanogaster, UniProt P08510, A359R/DEL6-46/M356R); assay: in vitro; details: for G(V) shift: mean; for pKa at 100 μM: Drosophila, functional pH dependence, read-out: Functional pKa (pH where half of the maximum G(V) shift was achieved)
3R Shaker Kv channel (M356R/A359R), sequence (P08510 other isoform, or with tags, fused parts or gaps DEL6-46/M356R/A359R): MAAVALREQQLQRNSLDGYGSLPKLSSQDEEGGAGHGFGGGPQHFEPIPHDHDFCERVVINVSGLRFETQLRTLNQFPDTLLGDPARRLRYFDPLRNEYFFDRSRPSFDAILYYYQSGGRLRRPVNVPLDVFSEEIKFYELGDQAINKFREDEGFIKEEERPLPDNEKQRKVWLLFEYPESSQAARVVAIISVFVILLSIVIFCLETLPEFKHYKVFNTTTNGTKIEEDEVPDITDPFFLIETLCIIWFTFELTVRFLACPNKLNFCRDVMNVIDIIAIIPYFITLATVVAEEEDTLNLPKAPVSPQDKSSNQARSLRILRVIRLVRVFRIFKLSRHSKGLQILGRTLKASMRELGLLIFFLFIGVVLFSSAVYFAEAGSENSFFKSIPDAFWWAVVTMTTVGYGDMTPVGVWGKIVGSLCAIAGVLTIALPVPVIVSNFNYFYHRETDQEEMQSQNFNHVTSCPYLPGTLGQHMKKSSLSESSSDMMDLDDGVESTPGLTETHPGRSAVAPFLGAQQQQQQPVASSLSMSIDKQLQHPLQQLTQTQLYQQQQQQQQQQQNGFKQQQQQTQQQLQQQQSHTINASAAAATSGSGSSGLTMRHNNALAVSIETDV
Description: (§1) Experiments were made with the Shaker H4 channel incapable of fast N-type inactivation due to a Δ6-46 deletion, referred to as the wt Shaker Kv channel. The 3R Shaker Kv channel with two additional positively charged arginines (M356R/A359R) in the extracellular end of S4, was also used.
(§2) For the Shaker channels, Bluescript II KS(+) plasmid was linearized with HindIII and synthesis of cRNA were made with the T7 mMessage mMachine kit (Ambion, Austin, Tex.). Point mutations around S4, on the Shaker Kv channel, were introduced using QuickChange Site-Directed Mutagenesis Kit (Agilent Technologies, Santa Clara, Calif.) and sequencing were used for verification.
(§3) 50 nl cRNA was injected into Xenopus laevis oocytes using a Nanoject injector (Drummond Scientific, Broomall, Pa.) and the oocytes were stored at 8° C. in a modified Barth's solution (MBS) before experiments (16° C., M-channel, 1-2 days). The MBS contained (in mM): 88 NaCl, 1 KCl, 2.4 NaHCO3, 15 HEPES, 0.33 Ca(NO3)2, 0.41 CaCl2), and 0.82 MgSO4, pH was adjusted to 7.5 by NaOH and the MBS was supplemented sodium pyruvate (2.5 mM). All animal experiments were approved by the Linkoping's local Animal Care and Use Committee.
(§4) Currents were measured 1-6 days after cRNA injection using the two-electrode voltage clamp technique (GeneClamp 500B amplifier, Axon instruments). Signals were low pass filtered at 5 kHz and digitized by a Digidata 1440A converter (Molecular Devices, Sunnyvale, Calif.). The amplifiers leak compensation was used and Clampex 10.2 software (Molecular Devices) was used to obtain data and create voltage protocols. The extracellular control solution contained (in mM): 1 KCl, 88 NaCl, 0.8 MgCl2, 0.4 CaCl2) and 15 HEPES. pH were adjusted with NaOH. Electrode pipettes were made from borosilicate glass capillaries (Harvard apparatus, Kent, UK) using a two stage electrode puller (Narishige, Tokyo, Japan) and resistance was between 0.5-2.0 MO once filled with 3 M KCl solution. In the voltage protocol for the wt and 3R Shaker channel, holding potential was set to −80 mV and steady-state currents were measured at voltages between −80 and +50 mV (wt Shaker Kv channel) or +70 mV (3R Shaker Kv channel), using 5 mV increments, 100 ms. […] Physiol. 143, 173-182 (2014). For the M-channel, holding potential was set to −100 mV, test-voltages were measured between −120 and +50 mV (10 mV increments for 2 s) and tail currents were measured at −30 mV.
(§5) Control solution was perfused to the recording chamber (0.5 ml/min) and the test solution was added manually with a syringe, in a volume large enough to replace the control solution manifold. Resin acids compounds were dissolved in DMSO (100 mM) and stored at −20° C. Just prior to experiment the compound was diluted to desired concentration in control solution. Recovery was measured after continuously perfusion of control solution, maximum 5 min. All recordings were made with the perfusion off. Experiments were carried out in room temperature (20-23° C.) and chemicals were purchased from Sigma Aldrich if not stated otherwise.
(§6) Currents were leak subtracted and steady-state currents were measured 80-86 ms after onset of the test voltages (Clampfit 10.5, Molecular Devices). K conductance, GK, was calculated using,
(§7) where IK is the steady-state current, V the absolute membrane voltage and VK the reversal potential for K ions (−80 mV), and the following Boltzmann curve was used to fit the data:
(§8) GK(V)=A/(1+exp((V1/2−V)/s)^n (2)
(§9) where A is the amplitude of the curve, V1/2 the midpoint when n=1, s the slope and n an exponent for better curve fitting, set to n=4. The voltage shift was calculated at 10% of maximal conductance in control curve.
(§10) To quantify the concentration dependence or pH dependence of the GK(V) shifts the following equation was used:
(§11) ΔVG(V)=ΔVMAX/(1+c1/2/c), (3)

[2] = biological target: wt Shaker Kv channel (Shaker H4, Δ6-46) (Drosophila melanogaster, UniProt P08510, DEL6-46); assay: Two-electrode voltage clamp, G(V) shift on wt Shaker Kv channel expressed in Xenopus laevis oocytes; details: mean
wt Shaker Kv channel (Shaker H4, Δ6-46), sequence (P08510 other isoform, or with tags, fused parts or gaps DEL6-46): as the sequence (P08510 other isoform, or with tags, fused parts or gaps DEL6-46/M356R/A359R) above, with R315M, R318A counted along it
Description: as §1, §2, §3, §4, §5, §6, §7, §8, §9, §10, §11

hKv7.2/Kv7.3 (M-channel) = biological target: T1, hKv7.2/Kv7.3 (M-channel) (Homo sapiens, UniProt O43525+O43526); assay: Two-electrode voltage clamp, G(V) shift on human M-channel expressed in Xenopus laevis oocytes; details: for G(V) shift: mean
T1 construct: expressed in transfected cells; host or cells: Xenopus laevis oocytes (cRNAs mixed 1:1)
Description: Experiments were also made with the human hKv7.2/Kv7.3, referred to as the M-channel. cRNAs were mixed in a 1:1 molar ratio before injection into oocytes. hKv7.2 [GenBank Acc. No. NM_004518]. hKv7.3 [GenBank Acc. No NM_004519].
as §3, §4, §5
For the M channel tail currents were measured 18 ms after onset and then plotted against the test voltage. The Boltzmann curve (Eq. 2) was used to fit data and the slope was set to shared value between control and test compound. V1/2 was used to calculate the GK(V) shift.
as §10, §11
where ΔVG(v) is the voltage shift, ΔVMAX is the amplitude of the curve, c the concentration, c1/2 the concentration at which half maximum response occur. For compounds with no pH dependence the data was fitted with a horizontal line, with the slope set to 0.

## CC(C)C1=CC2=CC[C@@H]3[C@](C)(CCC[C@@]3(C)C(=O)O)[C@H]2CC1 [AA, abietic acid, reference compound]
[1]; pH 7.4, 100 μM
  G(V) shift: −16.05 mV

## CC(C)c1ccc2c(c1)CC[C@H]1[C@](C)(C(=O)NCC(=O)O)CCC[C@]21C [Wu117, ((1R,4aS,10aR)-7-isopropyl-1,4a-dimethyl-1,2,3,4,4a,9,10,10a-octahydrophenanthrene-1-carbonyl)glycine]
[1]; pH 7.4, 100 μM
  G(V) shift: −7.27 mV
[1]; pH 10, 100 μM
  G(V) shift: −5.27 mV
[2]; pH 10, 100 μM
  G(V) shift: −0.80 mV

## CC(C)c1ccc2c(c1)CC[C@H]1[C@](C)(C(=O)N[C@@H](CC(=O)O)C(=O)O)CCC[C@]21C [Wu148, ((1R,4aS,10aR)-7-isopropyl-1,4a-dimethyl-1,2,3,4,4a,9,10,10a-octahydrophenanthrene-1-carbonyl)-L-aspartic acid]
[1]; pH 5.5, 100 μM
  G(V) shift: −13.30 mV
[1]; pH 6.5, 100 μM
  G(V) shift: −14.23 mV
[1]; pH 7.4, 100 μM
  G(V) shift: −14.47 mV
[1]; pH 9, 100 μM
  G(V) shift: −11.20 mV
[1]; pH 10, 100 μM
  G(V) shift: −9.53 mV
[2]; pH 7.4, 100 μM
  G(V) shift: −0.73 mV

## CC(C)c1ccc2c(c1)CC[C@H]1[C@](C)(C(=O)NCCCC(=O)O)CCC[C@]21C [Wu149, 4-((1R,4aS,10aR)-7-isopropyl-1,4a-dimethyl-1,2,3,4,4a,9,10,10a-octahydrophenanthrene-1-carboxamido)butanoic Acid]
[1]; pH 7.4, 100 μM
  G(V) shift: −4.80 mV
[1]; pH 7.4, 100 μM, single recording of FIG. 2C
  G(V) shift (example recording, normalized G(V) curves): −5.3 mV
[1]; pH 10, 100 μM
  G(V) shift: −5.17 mV
[2]; pH 10, 100 μM
  G(V) shift: −0.57 mV

## CC(C)c1ccc2c(c1)CC[C@H]1[C@](C)(C(=O)NCCCS(=O)(=O)O)CCC[C@]21C [Wu150, 3-((1R,4aS,10aR)-7-isopropyl-1,4a-dimethyl-1,2,3,4,4a,9,10,10a-octahydrophenanthrene-1-carboxamido)propane-1-sulfonic acid]
[1]; pH 7.4, 100 μM
  G(V) shift: −9.98 mV
[2]; pH 7.4, 100 μM
  G(V) shift: −4.18 mV

## CC(C)c1ccc2c(c1)CC[C@H]1[C@](C)(C(=O)NCCCC(=O)NCCCC(=O)O)CCC[C@]21C [Wu151, 4-(4-((1R,4aS,10aR)-7-isopropyl-1,4a-dimethyl-1,2,3,4,4a,9,10,10a-octahydrophenanthrene-1-carboxamido)butanamido)butanoic Acid]
[1]; pH 7.4, 100 μM
  G(V) shift: −2.53 mV

## CC(C)c1ccc2c(c1)CC[C@H]1[C@](C)(C(=O)NCCC(=O)O)CCC[C@]21C [Wu152, 3-((1R,4aS,10aR)-7-isopropyl-1,4a-dimethyl-1,2,3,4,4a,9,10,10a-octahydrophenanthrene-1-carboxamido)propanoic Acid]
[1]; pH 7.4, 100 μM
  G(V) shift: −6.2 mV
[1]; pH 10, 100 μM
  G(V) shift: −5.20 mV
[2]; pH 10, 100 μM
  G(V) shift: −1.17 mV

## CC(C)c1ccc2c(c1)CC[C@H]1[C@](C)(C(=O)NCCC(=O)NCCC(=O)O)CCC[C@]21C [Wu153, 3-(3-((1R,4aS,10aR)-7-isopropyl-1,4a-dimethyl-1,2,3,4,4a,9,10,10a-octahydrophenanthrene-1-carboxamido)propanamido)propanoic Acid]
[1]; pH 7.4, 100 μM
  G(V) shift: −2.54 mV

## CC(C)c1ccc2c(c1)CC[C@H]1[C@](C)(C(=O)NCCS(=O)(=O)O)CCC[C@]21C [Wu154, 2-((1R,4aS,10aR)-7-isopropyl-1,4a-dimethyl-1,2,3,4,4a,9,10,10a-octahydrophenanthrene-1-carboxamido)ethane-1-sulfonic Acid]
[1]
  pKa at 100 μM: < 7.4
[1]; pH 7.4, 100 μM
  G(V) shift: −9.85 mV
hKv7.2/Kv7.3 (M-channel); pH 7.4, 100 μM
  G(V) shift: −4.60 mV
[2]; pH 7.4, 100 μM
  G(V) shift: −2.48 mV

## CC(C)C1=CC2=CC[C@H]3[C@](C)(C(=O)NCCCC(=O)O)CCC[C@]3(C)C2CC1 (stereo partly drawn) [Wu157, 4-((1R,4aR,4bR,10aR)-7-isopropyl-1,4a-dimethyl-1,2,3,4,4a,4b,10,10a-decahydrophenanthrene-1-carboxamido)butanoic Acid]
[1]; pH 7.4, 100 μM
  G(V) shift: −7.10 mV

## CC(C)c1ccc2c(c1)CC[C@H]1[C@](C)(C(=O)NCP(=O)(O)O)CCC[C@]21C [Wu158, (((1R,4aS,10aR)-7-isopropyl-1,4a-dimethyl-1,2,3,4,4a,9,10,10a-octahydrophenanthrene-1-carboxamido)methyl)phosphonic Acid]
[1]; pH 7.4, 100 μM
  G(V) shift: −4.94 mV

## CC(C)c1ccc2c(c1)CC[C@H]1[C@](C)(COP(=O)(O)O)CCC[C@]21C [Wu162, ((1R,4aS,10aR)-7-isopropyl-1,4a-dimethyl-1,2,3,4,4a,9,10,10a-octahydrophenanthren-1-yl)methyl Dihydrogen Phosphate]
[1]; pH 6.5, 100 μM
  G(V) shift: −10.03 mV
[1]; pH 7.4, 100 μM
  G(V) shift: −11.80 mV
[1]; pH 9, 100 μM
  G(V) shift: −11.55 mV
[1]; pH 10, 100 μM
  G(V) shift: −8.93 mV
[2]; pH 7.4, 100 μM
  G(V) shift: −1.18 mV

## CC(C)c1ccc2c(c1)CCC1[C@](C)(/C=C/C(=O)O)CCC[C@]21C (stereo partly drawn) [Wu176, (E)-3-((1S,4aS)-7-isopropyl-1,4a-dimethyl-1,2,3,4,4a,9,10,10a-octahydrophenanthren-1-yl)acrylic Acid]
[1]
  pKa at 100 μM: 6.8
[1]; pH 5.5, 100 μM
  G(V) shift: 2.80 mV
[1]; pH 7.4, 100 μM
  G(V) shift: −15.16 mV
[1]; pH 10, 100 μM
  G(V) shift: −17.10 mV

## CC(C)c1ccc2c(c1)CCC1[C@](C)(CC(=O)O)CCC[C@]21C (stereo partly drawn) [Wu180, 2-((1S,4aS)-7-isopropyl-1,4a-dimethyl-1,2,3,4,4a,9,10,10a-octahydrophenanthren-1-yl)acetic acid]
[1]
  pKa at 100 μM: 7.3
[1]; pH 5.5, 100 μM
  G(V) shift: 1.575 mV
[1]; pH 7.4, 100 μM
  G(V) shift: −11.04 mV
[1]; pH 10, 100 μM
  G(V) shift: −19.18 mV
[2]; pH 10, 100 μM
  G(V) shift: −2.40 mV

## C[C@@]1(COS(=O)(=O)O)CCC[C@]2(C)c3cc(Cl)c(Cl)c(Cl)c3CC[C@@H]12 [Wu181, ((1R,4aS,10aR)-6,7,8-trichloro-1,4a-dimethyl-2,3,4,9,10,10a-hexahydrophenanthrene-1-yl)methyl hydrogen sulfate]
[1]; pH 7.4
  Increase of affinity compared to DHAA (factor): 16
  Increase of affinity compared to Wu161 and Wu50 (factor): 6
  Increase of amplitude/efficacy compared to DHAA (factor): 2.0
  Increased G(V) shift at low concentrations compared to DHAA (factor): 32
[1]; pH 7.4, 3 μM
  G(V) shift: −21.3±2.9 mV
[1]; pH 7.4, 10 μM
  G(V) shift: −31.90 mV
[1]; pH 7.4, concentration-response of G(V) shift
  ΔVMAX (maximum shift): −53.6 mV and −53.6±4.0 mV
[1]; pH 7.4, concentration-response of G(V) shift, read-out: c1/2 (half-maximal concentration)
  EC50: 6.1 µM
hKv7.2/Kv7.3 (M-channel); concentration-response of G(V) shift
  ΔVMAX (maximum shift): −42.1 mV and −42.1±5.7 mV
hKv7.2/Kv7.3 (M-channel); concentration-response of G(V) shift, read-out: c1/2 (half-maximal concentration)
  EC50: 12.4 µM
hKv7.2/Kv7.3 (M-channel); pH 7.4, 10 μM
  G(V) shift: −18.9±2.4 mV and −18.90 mV
